EP2307018B1, “OXYMATRINE COMPOSITIONS AND USE THEREOF FOR TREATING AND PREVENTING CHRONIC INFECTIOUS DISEASES” (Chia, John K.S., priority 2008, dated 2010)

Columns and labels:
hepatitis B virus = settings: cited from earlier work
[1] = test system: interleukin-12P35+P40/interleukin-10; assay: cytokine gene expression in CFS patients at start of and during oxymatrine therapy (FIG. 5); format: in vivo, human
Text: • FIG. 1 graphically illustrates the comparison of Th1/Th2 (interleukin-12p35+P40/interleukin-4 + interleukin-10, RQ is the gene expression ratio) gene expression of patients who are functional (able to work) versus totally disability (not able to work). The difference therein is statistically significant (p<0.01, pair t test). • FIG. 2 illustrates the infected human stomach (biopsy of case 5 stained with 5D8/1) before treatment with oxymatrine. • FIG. 3 illustrates the stomach biopsy of case 5 stained with 5 D8/1 after taking oxymatrine for 6 months. • FIG. 4 graphically illustrates a cytokine gene expression study before and after oxymatrine (RQ is the gene expression ratio). • FIG. 5 graphically illustrates cytokine gene expression of interleukin-12P35+P40/interleukin-10 in tissue from CFS patients at the start of (pre-oxymatrine) and during oxymatrine therapy (n=17).

enterovirus [2] = assay: case report Example 12, treating diarrhea; format: in vivo, human
Text: A person developed severe watery diarrhea for two months. Stool evaluation was unremarkable. […] They continued to do well for six months on the medication.

[3] = test system: varicella-zoster virus (VZV); assay: case report Example 9, chronic recurrent varicella-zoster virus infection (shingles); format: in vivo, human; settings: 200 mg bid
Experimental: A person developed recurrent shingles after multiple episodes of sinus infections and sinus surgeries. They also had chronic indigestion and nausea. Fatigue became so severe that they were bedridden for several years.
Coxsackievirus B4 antibody was 1:320. […] The patient was started on oxymatrine 200 mg bid.

coxsackievirus B = settings: in vitro; mechanism not defined; cited from earlier work
hepatitis B = settings: oral, after one year of treatment; comparable to interferon-α injection; cited from earlier work
echoviruses = settings: in vitro; mechanism not defined; cited from earlier work
enterovirus [4] = assay: case report Example 3, treatment of chronic fatigue; format: in vivo, human
Experimental: A person who had recurrent episodes of debilitating fatigue became totally incapacitated after approximately 17 years. The patient was treated with a combination of alpha and gamma interferon for six weeks with acceptable results. They went into remission but relapsed nine months later after developing a minor upper respiratory infection. They improved minimally after several months of bed rest, but was barely able to work six hours per day. They had brain fog, myalgia (7/10 pain) and was barely able to walk even 1-2 blocks.
Three days after taking oxymatrine at a dose of 300 mg bid, the myalgia intensified (10/10 pain), especially one hour after taking the pills. One week after starting oxymatrine, routine laboratory tests including CBC, chemistry panel and creatine phosphokinase (CPK) were normal. They continued having significant fatigue and myalgia for the next three weeks, but the symptoms resolved one week after stopping the medication. Mild increase in myalgia recurred three days after resuming oxymatrine, but resolved after continuing the medication for the next two weeks. The patient felt well at the end of three months with minimal discomfort in a few muscle groups.
Severe myalgia recurred after resuming vigorous exercise for three weeks while taking oxymatrine. They had to stop exercise for the two months allowing cessation of myalgia. After taking oxymatrine for six months, the patient felt well. Over the next six months after stopping the medication, the patient continuously performed heavy physical activities without significant difficulty. After developing another episode of upper respiratory symptoms, their symptoms relapsed. They have resumed oxymatrine but experienced increasing myalgia as the fatigue improved.

[5] = test system: Coxsackie B virus (CBV) 3, CVB4 and echovirus 9; assay: case report Example 2, treatment of chronic fatigue; format: in vivo, human
Experimental: A person with episodes of diarrhea while traveling to Tonga developed severe respiratory infection soon thereafter. The symptoms consisted of fevers to 105°F, night sweats, diffuse myalgia, tachycardia, fatigue, sinus congestion and cough, and unresponsiveness to antibiotics. The patient developed profound fatigue thereafter and went on total disability three months after the onset of symptoms. Initial Coxsackie B virus (CBV) 3, CVB4 and echovirus 9 antibody titers were 1:320, 1:160, 1:80 (normal <1:10), respectively.
The patient could not work for the next 18 months. They were started on oxymatrine at 300 mg twice a day (bid). After taking oxymatrine for two months, they were able to take short walks, but still exhausted after one hour of activity requiring five hour naps. At the end of three months of therapy, they started having fevers of 104-105°F for several days with marked decrease in diffuse myalgia. […] CVB3, CVB4 and echovirus antibody three months after therapy were 1:160, 1:160 and 1:20, respectively.

[6] = compared to placebo-treated animals

Q: Which results are given for `O=C1CCC[C@@H]2[C@H]3CCC[N+]4([O-])CCC[C@@H](CN12)[C@@H]34` (stereo partly shown) [oxymatrine]?
A: level of gamma interferon (hepatitis B virus; [6]): increased more than three-fold; level of interleukin-2 (hepatitis B virus; [6]): increased more than three-fold; level of interleukin-4 (hepatitis B virus; [6]): decreased more than three-fold; level of interleukin-10 (hepatitis B virus; [6]): decreased more than three-fold; effect on the hepatitis B viremia, mRNA and protein levels (hepatitis B virus; mouse, in vivo): No effect; increase of the interleukin-12P35+P40/interleukin-10 ratio (gene expression) ([1]; seven responders of n=17, pre-oxymatrine vs during therapy): greater than 2 fold; interleukin-12P35+P40/interleukin-10 ratio (gene expression) ([1]; ten non-responders of n=17, pre-oxymatrine vs during therapy): remained the same or decreased; diarrhea (enterovirus [2]; after starting oxymatrine): resolved within one week; effect of decrease of medication to half the dose (enterovirus [2]; resolved after increasing the dosage): relapse of the symptoms; outbreaks of shingles [3]: less often and not as severe; clinical outcome ([3]; three months, previously bedridden): went back to full-time work; growth inhibition of coxsackievirus B in cell cultures (coxsackievirus B): growth inhibition; overall cure rate (hepatitis B): about 40%; growth inhibition of echoviruses in cell cultures (echoviruses): growth inhibition; clinical outcome (enterovirus [4]; after taking oxymatrine for six months): felt well; clinical outcome (enterovirus [4]; at the end of three months, minimal discomfort in a few muscle groups): felt well; routine laboratory tests including CBC, chemistry panel and creatine phosphokinase (CPK) (enterovirus [4]; one week after starting oxymatrine): normal; myalgia (pain) (enterovirus [4]; three days after taking 300 mg bid, 7/10 before): 10/10; clinical outcome ([5]; 300 mg bid for three months, three months after finishing the medication, previously on total disability): went back to full-time work; fevers ([5]; at the end of three months of therapy, for several days, with marked decrease in diffuse myalgia): 104-105 °F; laboratory studies including CBC and complete chemistry panel ([5]; during therapy, calcium resolved after stopping hydrochlorothiazide): normal except mildly elevated calcium levels; relapse after therapy ([5]; in vivo): had not relapsed for at least one year after therapy
